Data set [1] deals with A. baumannii ATCC BAA1605. Put plainly: Bacterial viability assay. In kind it is cell-based, Acinetobacter baumannii. Conditions: Acinetobacter baumannii, ATCCBAA1605, 1 h, one hour in PBS, CFU, ± SEM. How it is done:
(§1) Supplementary file pone.0097742.s003.doc: Table S1 Bacterial viability assays. Bacteria were grown at 37°C to mid-log phase (OD600 ∼0.4). The bacteria were diluted to approximately 10^4 to 10^5 colony forming units (CFU) per milliliter and added to a solution of phosphate buffered saline (PBS, 16 mM phosphate, 0.14 M NaCl, pH 7.2) containing the compound at varied concentrations. Samples were incubated at 37°C for one hour and then plated on Luria Bertani (LB) agar at appropriate dilutions in PBS. The plates were incubated overnight at 37°C and colonies enumerated the following day. IC50s were calculated from graphs of CFU as a function of compound concentration. Chlorhexidine was used as a positive control. […] (DOC) Click here for additional data file.
(§2) Bacterial viability assays. Bacteria were grown at 37°C to mid-log phase (OD600 ~0.4). The bacteria were diluted to approximately 10^4 to 10^5 colony forming units (CFU) per milliliter and added to a solution of phosphate buffered saline (PBS, 16 mM phosphate, 0.14 M NaCl, pH 7.2) containing the compound at varied concentrations. Samples were incubated at 37°C for one hour and then plated on Luria Bertani (LB) agar at appropriate dilutions in PBS. The plates were incubated overnight at 37°C and colonies enumerated the following day. IC50s were calculated from graphs of CFU as a function of compound concentration. Chlorhexidine was used as a positive control.

The test system of the next data set is A. baumannii ATCC 19606. Put plainly: Bacterial viability assay. The conditions noted are these: Acinetobacter baumannii, ATCC19606, 1 h, one hour in PBS, CFU, ± SEM. Type of data set: cell-based, Acinetobacter baumannii. As to the method:
as §1, §2

The next data set concerns Acanthamoeba castellanii. Briefly: Toxicity against eukaryotic pathogen. Type of data set: cell-based. The conditions noted are these: data not shown.
Data set [2] is described as follows: Cell toxicity assay (MTS). In kind it is cell-based, human. Conditions: human, MTS assay, concentration which killed 50% of the cells. How it is done: (§3) The HaCaT cell line was grown in Epilife medium (MEPI500Ca) with human keratinocyte growth supplement (Invitrogen, San Diego, CA). Both types of cells were harvested using Tryspin/EDTA and diluted to 1×10^5 cells per well in a 96-well plate. Ten concentrations covering five orders of magnitude were tested with six replicates per concentration. […] MTS/PMS solution (Promega, Madison, WI) was added to the wells and absorbance was measured at 490 nm two to four hours later. Data was analyzed using GraphPad Prism version 5.0 (GraphPad Software, La Jolla, CA) using a variable slope inhibition dose response curve.
On the technique in general: Tetrazolium dyes change colour on reduction, which living cells bring about.

The test system of a further data set is E. faecalis MSU#10. Briefly: Bacterial viability assay. Type of data set: cell-based, Enterococcus faecalis. The conditions noted are these: Enterococcus faecalis, 1 h. As to the method: as §1, §2
For the next data set, the system named is E. faecalis V583. Briefly: Bacterial viability assay. Conditions: Enterococcus faecalis, 1 h, one hour in PBS, CFU, ± SEM. Type of data set: cell-based, Enterococcus faecalis. How it is done:
as §1, §2

Another data set has as its system all of the pathogens. Briefly: MIC against all of the pathogens (LB). Type of data set: cell-based. The conditions noted are these: complex medium (LB), actively growing bacteria. As to the method:
Minimum inhibitory concentration (MIC) values were determined for those compounds showing the most antibacterial activity in the bacterial viability assays (see Supplemental Materials) against each of the strains of bacteria using a microdilution method in 96 well plates with LB media according to guidelines published by the British Society for Antimicrobial Chemotherapy. Minimum bactericidal concentrations (MBC) were determined by plating 10 µL and 100 µL from each well showing no signs of growth after overnight incubation of the MIC plates and determining the minimum concentration showing a 3-log reduction of viable bacteria. MIC and MBC were also determined in cation-adjusted Mueller-Hinton broth (Hardy Diagnostics, Santa Maria, CA) for some compounds and strains.

The subject of another data set is E. coli K91. Put plainly: Bacterial viability assay. Type of data set: cell-based, Escherichia coli. The conditions noted are these: Escherichia coli, 1 h, one hour in PBS, CFU, ± SEM. How it is done:
as §1, §2

The subject of the next data set is MRSA USA300. Briefly: Bacterial viability assay. Type of data set: cell-based, Staphylococcus aureus. The conditions noted are these: Staphylococcus aureus, 1 h, one hour in PBS, CFU, ± SEM. As to the method: as §1, §2
The next data set relates to P. aeruginosa PA01. Put plainly: Bacterial viability assay. Type of data set: cell-based, Pseudomonas aeruginosa. Conditions: Pseudomonas aeruginosa, 1 h, one hour in PBS, CFU, ± SEM. How it is done: as §1, §2
Data set [3] has as its system HaCaT human keratinocytes. Put plainly: Cell toxicity assay (MTS). In kind it is cell-based. How it is done: as §3
For data set [4], the system named is human breast cancer cell line MDA-MB-231. Briefly: Cell toxicity assay (MTS). In kind it is cell-based. Conditions: MDA-231. As to the method:
as §3

The next data set concerns Balb/c mice. Briefly: In vivo toxicity study (serum chemistry and enzyme levels). The conditions noted are these: i.p. 0.1 ml of 10, 50, 100 µM, blood two hours post injection, versus mock-treated control. The arrangement: species or system mouse. As to the method:
THAM-3ΦG was chosen for the in vivo challenge experiments, because it had the best combination of antibacterial activity and low toxicity (Tables 1–3). In vivo toxicity studies were carried out prior to the start of experiments in mice challenged with MRSA. Groups of three Balb/c mice each were injected i.p. with 0.1 ml of 0, 10, 50, and 100 µM THAM-3ФG in PBS. The highest in vivo dose represented 0.36 mg/kg. Blood was drawn from the mice at two hours post injection and submitted for a standard panel of serum chemistry and enzyme levels. The chemistry and enzyme levels were not elevated for any of the concentrations tested compared to the mock-treated control group (data not shown).

The next data set concerns MRSA. Put plainly: In vivo MRSA challenge (intraperitoneal infection). The arrangement: species or system BALB/c mice. Conditions: mice, 8 h post infection. As to the method: Three groups of BALB/c mice (8 mice per group) were infected by intraperitoneal (i.p.) injection with 5×10^7 MRSA in 100 µl sterile PBS [16], [17]. The first treatment group was injected i.p. with 100 µl of 100 µM THAM trisphenylguanide in PBS immediately after infection. The second group was injected i.p. with 100 µl of 100 µM THAM trisphenylguanide one hour post-infection. The control group was injected with 100 µl PBS. At eight hours post-infection, all mice were euthanized. An intraperitoneal lavage using 10 ml PBS was performed to recover bacteria within the peritoneal cavity and plated at multiple dilutions on TSA plates. The heart and kidney were removed for evaluation of systemic infection. Briefly, tissues were weighed, homogenized, and plated at multiple dilutions on TSA plates. TSA plates were incubated overnight at 37°C at 5% CO2 and CFU enumerated the next day.

The mark [5] stands for this setting: MDA-MB-231 breast cancer cells (ATCC HTB-26), MDA-231.
Setting [6] is: 100 µM i.p. one hour after MRSA infection.

In brackets after ≈: the same amount, converted by molar mass. Read-outs that look alike come from different tables or passages of the source.

One may read the IC50 as the point on the concentration scale where inhibition reaches its midpoint. The CC50 is the concentration giving 50% cytotoxicity. A higher CC50 goes with better tolerance by the cells. One may read the MIC as the least concentration at which growth counts as inhibited.

For `[H]/N=C(\N/C(=N/[H])NCCCCCCNC(=N)NC(=N)Nc1ccc(Cl)cc1)Nc1ccc(Cl)cc1` [Chlorhexidine, chlorhexidine, reference compound], the IC50 in [1] was 0.78 ± 0.31 µM; in the data set on A. baumannii ATCC 19606 it was 1.3 ± 0.2 µM; in the data set on Acanthamoeba castellanii it was roughly 10 µM; in the data set on E. faecalis MSU#10, 14 ± 6 µM; in the data set with E. faecalis V583 it was 16 ± 6 µM; with E. coli K91, 1.7 ± 0.6 µM. The IC50 was determined as 13 µM in the data set on MRSA USA300 and 2.6 ± 0.5 µM with P. aeruginosa PA01. The CC50 was 1.9 µg/mL (≈ 3.76 µM) in [2] (HaCaT keratinocytes) and 2.6 µg/mL (≈ 5.14 µM) in data set [2] (setting [5]). Besides, the minimal inhibitory concentration (MIC) in the data set on all of the pathogens is no more than 16 µg/mL.

Regarding `N=C(NCCCCCCNc1nc(NCCCCCCNC(=N)Nc2ccccc2)nc(NCCCCCCNC(=N)Nc2ccccc2)n1)Nc1ccccc1` [THAM-3ΦG, Trishexylaminomelamine trisphenylguanide], the IC50 in data set [1] was 4.3 ± 1 µM; with A. baumannii ATCC 19606 it was 0.86 ± 0.25 µM; with E. faecalis MSU#10 (E. faecalis MSU#10, one hour in PBS, CFU, ± SEM, read-out: IC50) it was 2.8 ± 0.6 µM; in the data set with E. faecalis V583 it was 65 ± 1 µM; with E. coli K91, 3.8 ± 1.6 µM; in the data set on MRSA USA300, 3.9 ± 0.5 µM. Moreover, in the data set with P. aeruginosa PA01, the IC50 was 4.5 ± 2.5 µM. The results for the CC50 in data set [2] (HaCaT keratinocytes) and in data set [2] (setting [5]) were 14 µg/mL (≈ 18 µM) and 7.6 µg/mL (≈ 9.77 µM), respectively. Further, the “Relative to chlorhexidine (factor by which cytotoxicity was reduced)” value was determined as 7.1 in data set [3] and 3.0 in data set [4]. In the data set on Balb/c mice, the “serum chemistry and enzyme levels” value is listed as “not elevated”. Besides, the “reduction in bacterial burden in both organs (kidneys, heart) and IP lavage” value in the data set on MRSA (100 µM i.p. immediately after MRSA challenge, versus PBS) is recorded as “approximately 3 log”. The “reduction of mean CFUs in IP lavages” value in the data set with MRSA (setting [6]) stood at 2 fold. In addition, the “reduction of mean CFUs in heart” value with MRSA (setting [6]) was determined as 3 fold. The “reduction of mean CFUs in kidneys” value in the data set on MRSA (setting [6]) is 20 fold.

Values taken from paper PMC4026384, “Antibacterial Activity of THAM Trisphenylguanide against Methicillin-Resistant Staphylococcus aureus” (PLoS ONE, 2014).
